What was measured:
[1] = molecular target: indoleamine 2, 3-dioxygenase (IDO1) (Homo sapiens, UniProt P14902); experiment: IDO1 HeLa RapidFire MS assay (kynurenine detection by mass spectrometry); format: cell-based; parameters: to induce the expression of indoleamine 2, 3-dioxygenase (IDO1); details: HeLa cells, pIC50, read-out: IDO1_HELA_PXC50 (converted)
Outline: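 Compound potency reported as pIC50 from kynurenine/internal-standard ratio (RapidFire MS) in supernatant of IFN-γ-induced (10 nM) HeLa cells, 5,000 per well, after 2 days' treatment with 11-point dilutions. Cytotoxicity in the same format by luminescent ATP detection, reported as pCC50.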

[2] = system: human epithelial HeLa cells; experiment: HeLa cytotoxicity assay (CellTiter-Glo); format: cell-based; details: pCC50
Outline: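 Read-out is CellTiter-Glo luminescence after 2 days at 37 °C, on IFN-γ-stimulated (10 nM) HeLa cells seeded at 5,000/well with compounds in 11-point 3-fold dose series. pCC50 from four-parameter curve fit; wells without cells set 100% cytotoxicity, stimulated cells with DMSO set 0%.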

Chain of indoleamine 2, 3-dioxygenase (IDO1) (P14902 whole entry): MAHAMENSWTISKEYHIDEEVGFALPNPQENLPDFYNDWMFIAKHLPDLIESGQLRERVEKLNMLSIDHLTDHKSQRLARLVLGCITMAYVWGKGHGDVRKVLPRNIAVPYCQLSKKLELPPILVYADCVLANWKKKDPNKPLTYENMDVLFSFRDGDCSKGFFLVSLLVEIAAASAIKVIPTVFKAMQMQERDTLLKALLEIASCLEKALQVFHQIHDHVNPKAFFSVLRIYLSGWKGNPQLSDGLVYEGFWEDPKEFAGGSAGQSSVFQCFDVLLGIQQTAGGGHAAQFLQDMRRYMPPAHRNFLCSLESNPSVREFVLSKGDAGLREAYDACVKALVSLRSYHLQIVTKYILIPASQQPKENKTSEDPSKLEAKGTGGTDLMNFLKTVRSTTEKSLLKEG

Row | Structure (SMILES) | IC50 [1] | HELA_IDO1_TOX_PXC50 [2]
1 | CC(C)CN(c1ccc([C@H](C)CC(=O)O)cc1Nc1nc(C(F)(F)F)ns1)C1CCOCC1 [Example 20, (R)-3-(4-(Isobutyl(tetrahydro-2H-pyran-4-yl)amino)-3-((3-(trifluoromethyl)-1,2,4-thiadiazol-5-yl)amino)phenyl)butanoic Acid] | 2.51 nM | <5
2 | CC(C)CN(c1ccc([C@H](C)CC(=O)O)cc1Nc1nnc(C2CC2)s1)C1CCOCC1 [Example 23, (R)-3-(3-((5-cyclopropyl-1,3,4-thiadiazol-2-yl)amino)-4-(isobutyl (tetrahydro-2H-pyran-4-yl)amino)phenyl)butanoic Acid] | 3.98 nM | <5
